Tested on: bacteria
Test: Antibacterial activity
Type: cell-based

## COC1(C)CC(O[C@H]2[C@H](C)[C@@H](OC3OC(C)CC(N(C)C)C3O)[C@](C)(O)C[C@@H](C)C(=O)[C@H](C)[C@@H](O)[C@](C)(O)[C@@H](CCF)OC(=O)[C@@H]2C)OC(C)C1O (some centres unmarked) [15-fluoroerythromycin A, 15-Fluoroerythromycin A]
  antibacterial activity: strong antibacterial activity

## CCC[C@H]1OC(=O)[C@H](C)[C@@H](O[C@H]2C[C@@](C)(OC)[C@@H](O)[C@H](C)O2)[C@H](C)[C@@H](O[C@@H]2O[C@H](C)C[C@H](N(C)C)[C@H]2O)[C@](C)(O)C[C@@H](C)C(=O)[C@H](C)[C@@H](O)[C@]1(C)O [15-methylerythromycin A]
  antibacterial activity: strong antibacterial activity

From patent US6492562B1, “Racemic thioesters for production of polyketides” (Kosan Biosciences, Inc., priority 1999, dated 2002)
